Reference: patent publication US7998414B2, “System for high throughput GPCR functional assay” (priority 2007, dated 2011)

Target: T1, opioid receptor mu (OPRM) (Homo sapiens, UniProt P35372)
T1 construct: purchased Perkin-Elmer Life Science (Boston, Mass.)
Experiment: Eu-GTP based functional assay on GPCR microarray on porous glass substrate
Type: biochemical
Settings: multiplexed array; Eu-GTP 10 nM, GDP 3 μM, 1 hour; FIG. 5E

T1 sequence (P35372 whole entry): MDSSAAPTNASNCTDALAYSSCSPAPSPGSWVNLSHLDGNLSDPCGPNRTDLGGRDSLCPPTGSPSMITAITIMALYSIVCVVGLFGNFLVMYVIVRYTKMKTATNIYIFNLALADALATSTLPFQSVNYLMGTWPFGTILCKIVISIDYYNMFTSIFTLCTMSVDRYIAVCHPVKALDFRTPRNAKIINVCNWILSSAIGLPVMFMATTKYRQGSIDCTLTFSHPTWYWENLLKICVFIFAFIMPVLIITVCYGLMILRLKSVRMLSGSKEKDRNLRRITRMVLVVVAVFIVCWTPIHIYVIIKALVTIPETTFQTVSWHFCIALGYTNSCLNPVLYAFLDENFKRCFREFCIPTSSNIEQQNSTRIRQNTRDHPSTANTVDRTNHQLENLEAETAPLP

C[C@@H](NC(=O)[C@@H](N)Cc1ccc(O)cc1)C(=O)NCC(=O)N(C)[C@@H](Cc1ccccc1)C(=O)NCCO [DAMGO]
activation of OPRM receptors by agonist (Eu-GTP fluorescence image): selective activation
